{
  "source": "patent US12437835B2",
  "about": "“Interrogatory cell-based assays and uses thereof” (Berg LLC, priority 2012, dated 2025)",
  "key": {"HUVEC cells [1]": {"tested_on": "HUVEC cells", "assay": "HUVEC cell numbers", "format": "cell-based, Human", "experimental": "(§1) Methods: Human umbilical vein endothelial cell (HUVEC) fate decisions that modulate the angiogenic phenotype were examined in the presence of 100 or 1500 μM CoQ10 or excipient and compared to untreated control cells. Endothelial cell fate assays for apoptosis, proliferation, migration and 3-D tube formation within MATRIGEL® were performed.\n(§2) CoQ10 decreases endothelial cell numbers and proliferation: Sub-confluent cultures of HUVEC cells were treated for 72 hours with 100 or 1500 μM CoQ10 and assayed for both cell numbers (FIG. 54A) and proliferation (FIG. 54B) using a propidium iodide incorporation assay (detects G2/M phase DNA)."}, "HUVEC cells [2]": {"tested_on": "HUVEC cells", "assay": "Reactive oxygen species (ROS) generation in HUVEC under normoxia and hypoxia", "format": "cell-based, Human", "settings": "subconfluent and confluent HUVEC, normoxic or hypoxic, 0, 100 or 1500 μM CoQ10", "experimental": "The response of HUVEC cells to normoxia and hypoxia in the presence of absence of CoQ10 was assessed. Specifically, HUVEC cells were grown in subconfluent and confluent cultures under normoxic or hypoxic conditions as described herein. The cells were also exposed to 0, 100, or 1500 μM CoQ10. Nitric oxide (NO) and reactive oxygen species (ROS) levels were determined using methods provided herein."}, "HUVEC cells [3]": {"tested_on": "HUVEC cells", "assay": "HUVEC bioenergetics (Seahorse assays)", "format": "cell-based, Human", "settings": "sub-confluent HUVEC cultures, CoQ10 10, 100, 1500 μM", "experimental": "The bioenergetics of HUVEC cells were assessed in the presence of various concentrations of CoQ10. Specifically, HUVEC cells were grown in subconfluent or confluent conditions in the absence or presence of CoQ10 (10, 100, 1500 μM). Oxygen consumption rates (OCR), both total and mitochondrial, ATP production, and Extra Cellular Acidification Rate (ECAR) were assessed using Seahorse assays."}, "HUVEC cells [4]": {"tested_on": "HUVEC cells", "assay": "HUVEC migration, endothelial scratch assay", "format": "cell-based, Human", "settings": "for closure of the cleared area (scratch assay): confluent HUVEC", "experimental": "as §1\n(§3) To assess the potential effects of CoQ10 on endothelial migration, HUVEC migration was examined 5 hours post-cell clearance, in an endothelial scratch assay. […] In order to determine if the CoQ10 anti-tumor activity is due to effects on endothelial sprouting angiogenesis, we examined endothelial tube formation in 3-D MATRIGEL® cultures over time. Addition of excipient in both the gel and overlying media impaired tube formation compared to control.\nCoQ10 decreases endothelial cell migration: HUVEC cells were grown to confluence tested for migration using the ‘scratch’ assay. 100 or 1500 μM CoQ10 was applied at the time of scratching and closure of the cleared area was monitored over 48 hours."}, "Bcl2 [5]": {"tested_on": "Bcl2", "settings": "melanoma cell, in the presence of VEGF; cited from earlier work"}, "Bcl2 [6]": {"tested_on": "Bcl2", "settings": "normal fibroblast, co-administration of CoQ-10 and VEGF; cited from earlier work"}, "GPAT1": {"tested_on": "GPAT1", "assay": "Western blotting of GPAT1 in cardiomyocytes", "format": "cell-based, Human", "settings": "hyperglycemia conditioned cardiomyocytes, diabetic drug plus Coenzyme Q10 (T+R)", "experimental": "(§4) Human cardiomyocytes were subject to conditions simulating an diabetic environment experienced by the disease-relevant cells in vivo. Specifically, the cells were exposed to hyperglycemic conditions and hyperlipidemia conditions. The hyperglycemic condition was induced by culturing cells in media containing 22 mM glucose. The hyperlipidemia condition was induced by culturing the cells in media containing 1 mM L-carnitine, 0.7 mM Oleic acid and 0.7 mM Linoleic acid.\nThe cell model comprising the above-mentioned cells, wherein the cells were exposed to each condition described above, was additionally “interrogated” by exposing the cells to an “environmental perturbation” by treating with a diabetic drug (T) which is known to cause cardiotoxicity, a rescue molecule (R) or both the diabetic drug and the rescue molecule (T+R). Specifically, the cells were treated with diabetic drug; or treated with rescue molecule Coenzyme Q10 at 0, 50 µM, or 100 µM; or treated with both of the diabetic drug and the rescue molecule Coenzyme Q10.\nProtein expression levels of GPAT1 and TAZ for each condition and each treatment were tested with western blotting."}, "HUVEC cells [7]": {"tested_on": "HUVEC cells", "assay": "HUVEC proliferation (propidium iodide incorporation, G2/M phase)", "format": "cell-based, Human", "settings": "sub-confluent HUVEC, 72 hours, 100 or 1500 μM CoQ10", "experimental": "as §1, §2"}, "HUVEC cells [8]": {"tested_on": "HUVEC cells", "assay": "Endothelial tube formation in 3-D MATRIGEL", "format": "cell-based, Human", "settings": "for endothelial tube formation: 3-D matrigel", "experimental": "as §1, §3\nCoQ10 impairs endothelial tube formation: Endothelial cells growing in 3-D matrigel form tubes over time. Differential effects of 100 μM and 1500 μM CoQ10 on tube formation were observed. […] Images shown in FIG. 56 were taken at 72 hours."}, "caspase 3": {"tested_on": "caspase 3", "assay": "Caspase 3 activation in endothelial cells", "format": "cell-based", "description": "Angiogenesis is a key enabling feature of tumor progression that provides oxygen and nutrients that are required for tumor cell growth. We have investigated the anti-angiogenic properties of CoQ10, an anti-tumor drug that is currently under investigation in human studies of cancer progression."}, "[9]": {"tested_on": "hyperglycemia conditioned cardiomyocytes", "assay": "Mitochondrial oxygen consumption rate in hyperglycemia conditioned cardiomyocytes (Seahorse)", "format": "cell-based, Human", "settings": "diabetic drug plus Coenzyme Q10 (T1+R or T2+R)", "experimental": "as §4\niProfiling of changes in total cellular protein expression by quantitative proteomics was performed for cell and media samples collected for each condition and with each “environmental perturbation”, i.e, diabetic drug treatment, Coenzyme Q10 treatment or both, using the techniques described above in the detailed description. Transcriptional profiling experiments were carried out using the Biorad cfx-384 amplification system. Following data collection (Ct), the final fold change over control was determined using the δCt method as outlined in manufacturer's protocol. Lipidomics experiments were carried out using mass spectrometry. Functional assays such as Oxygen consumption rate OCR were measured by employing the Seahorse analyzer essentially as recommended by the manufacturer. OCR was recorded by the electrodes in a […] chamber created with the cartridge pushing against the seahorse culture plate. […]"}, "[10]": {"settings": "concentration not stated (summary)"}},
  "note": "Entries after “also recorded” stand apart in the source; their conditions may differ.",
  "data": [
    {"molecule": "COC1=C(OC)C(=O)C(C/C=C(\\C)CC/C=C(\\C)CC/C=C(\\C)CC/C=C(\\C)CC/C=C(\\C)CC/C=C(\\C)CC/C=C(\\C)CC/C=C(\\C)CC/C=C(\\C)CCC=C(C)C)=C(C)C1=O", "note": "[CoQ10, Coenzyme Q10]", "values": [
      {"measurement": "HUVEC cell counts", "setting": "HUVEC cells [1]; 1500 μM CoQ10", "result": "significantly decreased"},
      {"measurement": "cell numbers", "setting": "HUVEC cells [1]; sub-confluent HUVEC, 72 hours, 100 or 1500 μM, high concentrations of CoQ10", "result": "significant decrease; also recorded: decreased cell numbers"},
      {"measurement": "generation of reactive oxygen species (ROS)", "setting": "HUVEC cells [2]", "result": "differential dose dependent generation"},
      {"measurement": "mitochondrial OCR", "setting": "HUVEC cells [3]", "result": "reverts mitochondrial OCR to confluent level OCR"},
      {"measurement": "HUVEC migration", "setting": "HUVEC cells [4]; 5 hours post-cell clearance, 100 and 1500 μM, excipient also impaired migration", "result": "significantly impaired"},
      {"measurement": "endothelial migration in scratch assays", "setting": "HUVEC cells [4]; [10]", "result": "potent inhibition of endothelial migration; also recorded: impairs endothelial migration"},
      {"measurement": "closure of the cleared area (scratch assay)", "setting": "HUVEC cells [4]; 100 μM CoQ10, monitored over 48 hours, compared to control", "result": "delayed endothelial closure"},
      {"measurement": "closure of the cleared area (scratch assay)", "setting": "HUVEC cells [4]; 1500 μM CoQ10, up to 48 hours", "result": "prevented closure"},
      {"measurement": "level of Bcl2", "setting": "Bcl2 [5]", "result": "decreased"},
      {"measurement": "levels of Bcl2", "setting": "Bcl2 [6]", "result": "no effect"},
      {"measurement": "protein expression level of GPAT1", "setting": "GPAT1", "result": "normalized"},
      {"measurement": "EC proliferation (G2/M phase cells)", "setting": "HUVEC cells [7]", "result": "dose-dependent effect; also recorded: potent inhibitor of endothelial proliferation; also recorded: impairs endothelial proliferation"},
      {"measurement": "HUVEC tube formation", "setting": "HUVEC cells [8]; 1500 μM CoQ10, compared to both excipient and control untreated cells, 24 hours up to 96 hours", "result": "further impaired"},
      {"measurement": "endothelial tube formation", "setting": "HUVEC cells [8]; 100 μM CoQ10", "result": "modest effect"},
      {"measurement": "endothelial tube formation", "setting": "HUVEC cells [8]; 1500 μM CoQ10, images at 72 hours", "result": "Impaired cell to cell association and breakdown of early tube structure was significant; also recorded: dramatic disruption of endothelial tube formation"},
      {"measurement": "tube formation in 3-D MATRIGEL tube formation assays", "setting": "HUVEC cells [8]; [10]", "result": "impairs"},
      {"measurement": "activation of caspase 3", "setting": "caspase 3", "result": "induces activation of caspase 3"},
      {"measurement": "mitochondrial OCR (oxygen consumption rate)", "setting": "[9]", "result": "normalized"},
      {"measurement": "mitochondrial OCR (oxygen consumption rate)", "setting": "[9]; listed as rescue molecule", "result": "normalizes"}
    ]}
  ]
}
